According to patent US11845747B2, “Ester and carbonate pyrimidine compounds as JAK kinase inhibitors” (priority 2019, dated 2023):
Converted amounts (≈) assume the structure as drawn.

Columns and labels:
[1] = system: IL-2 stimulated STAT5 phosphorylation in Tall-1 human T cell line (JAK1/3); assay: Inhibition of IL-2 stimulated pSTAT5 in Tall-1 T cells; assay type: cell-based; conditions: IL-2 300 ng/mL, AlphaLisa, read-out: Tall-1 IL2 pSTAT5 (pIC50) (converted)
Experimental: Assay 2: Inhibition of IL-2 Stimulated pSTAT5 in Tall-1 T Cells
The potency of test compounds for inhibition of interleukin-2 (IL-2) stimulated STATS phosphorylation was measured in the Tall-1 human T cell line (DSMZ) using AlphaLisa. Because IL-2 signals through JAK1/3, this assay provides a measure of JAK1/3 cellular potency.
Phosphorylated STAT5 was measured via the AlphaLISA SureFire Ultra pSTAT5 (Tyr694/699) kit (PerkinElmer). Human T cells from the Tall-1 cell line were cultured in a 37° C., 5% CO2 humidified incubator in RPMI (Life Technologies) supplemented with 15% Heat Inactivated Fetal Bovine Serum (FBS, Life Technologies), 2 mM Glutamax (Life Technologies), 25 mM HEPES (Life Technologies) and 1× Pen/Strep (Life Technologies). Compounds were serially diluted in DMSO and dispensed acoustically to empty wells. Assay media (phenol red-free DMEM (Life Technologies) supplemented with 10% FBS (ATCC)) was dispensed (4 μL/well) and plates shaken at 900 rpm for 10 mins. Cells were seeded at 45,000 cells/well in assay media (4 μL/well), and incubated at 37° C., 5% CO2 for 1 hour, followed by the addition of IL-2 (R&D Systems; final concentration 300 ng/mL) in pre-warmed assay media (4 μL) for 30 minutes. After cytokine stimulation, cells were lysed with 6 ul of 3× AlphaLisa Lysis Buffer (PerkinElmer) containing 1× PhosStop and Complete tablets (Roche). The lysate was shaken at 900 rpm for 10 minutes at room temperature (RT). Phosphorylated STAT5 was measured via the pSTAT5 AlphaLisa kit (PerkinElmer). Freshly prepared acceptor bead mixture was dispensed onto lysate (5 μL) under green filtered <100 lux light. Plates were shaken at 900 rpm for 2 mins, briefly spun down, and incubated for 2 hrs at RT in the dark. Donor beads were dispensed (5 μL) under green filtered <100 lux light. Plates were shaken at 900 rpm for 2 minutes, briefly spun down, and incubated overnight at RT in the dark. Luminescence was measured with excitation at 689 nm and emission at 570 nm using an EnVision plate r reader (PerkinElmer) under green filtered <100 lux light.
To determine the inhibitory potency of test compounds in response to IL-2, the average emission intensity of beads bound to pSTAT5 was measured in a human T cell line. IC50 values were determined from analysis of the inhibition curves of signal intensity versus compound concentration. Data are expressed as pIC50 (negative decadic logarithm IC50) values (mean±standard deviation).

physchem = assay type: physicochemical; conditions: thermodynamic from solid
Experimental: Assay 5: Solubility Assay in Organic Excipients The purpose of this assay was to quantify the solubility of test compounds in different organic excipients such as diisopropyl adipate, medium chain triglycerides (MCT), propylene glycol, and polyethylene glycol. The assay required 80 μL of 100 mM DMSO test compound solution per desired excipient in addition to 40 μL required to make a test standard. For example, to test a compound in all five […]) of 100 mM DMSO compound stock solution was required. The standard was created by diluting 40 μL of 100 mM DMSO compound stock solution into 160 μL of methanol and was shaken for five minutes to ensure solution uniformity. […] This 20,000 μM solution was run on an Agilent 1260 LC-MS system by injecting 0.2 μL in order to obtain the peak area. For the test solutions, 80 μL of 100 mM DMSO compound stock solution, per excipient, were dried down into a powder overnight. Once in powder form, 400 μL of the desired excipient was added to the powder and allowed to shake vigorously for four hours. The maximum theoretical concentration for this sample solution was 20,000 μM. After four hours of shaking, the samples were centrifuged for 10 minutes at 3,000 RPM before injecting 0.2 μL on the same Agilent 1260 LC-MS system to obtain the peak area. […] In Table 3 below, A represents a value above 10, B represents a value between 5 and 10, C represents a value below 5.

[2] = oil or lipid, Solubility in MCT
[3] = organic solvent or mixture, Solubility in Diisopropyl adipate
[4] = organic solvent or mixture, Solubility in PEG400
[5] = organic solvent or mixture, Solubility in Propylene glycol
[6] = organic solvent or mixture, Solubility in Transcutol

Row | Compound | IC50 [1] | solubility at 4 h (physchem; [2]) | solubility at 4 h (physchem; [3]) | solubility at 4 h (physchem; [4]) | solubility at 4 h (physchem; [5]) | solubility at 4 h (physchem; [6])
1 | CCCCCCC(=O)OCc1nc(N(C)[C@@H]2C[C@H]3CCC[C@@H](C2)N3S(=O)(=O)CC)nc(Nc2cc(C)[nH]n2)c1F [Compound 5, (2-(((1R,3s,5S)-9-(ethylsulfonyl)-9-azabicyclo[3.3.1]nonan-3-yl)(methyl)amino)-5-fluoro-6-((5-methyl-1H-pyrazol-3-yl)amino)pyrimidin-4-yl)methyl heptanoate] | ≤ 0.01 µM | < 5 mg/mL | > 10 mg/mL | > 10 mg/mL | 5 to 10 mg/mL (≈ 8.62 to 17.2 mM) | > 10 mg/mL
2 | CCS(=O)(=O)N1[C@@H]2CCC[C@H]1C[C@H](N(C)c1nc(COC(=O)OC3CCOCC3)c(F)c(Nc3cc(C)[nH]n3)n1)C2 [Compound 9, (2-(((1R,3s,5S)-9-(ethylsulfonyl)-9-azabicyclo[3.3.1]nonan-3-yl)(methyl)amino)-5-fluoro-6-((5-methyl-1H-pyrazol-3-yl)amino)pyrimidin-4-yl)methyl (tetrahydro-2H-pyran-4-yl) carbonate] | ≤ 0.01 µM | < 5 mg/mL | > 10 mg/mL | > 10 mg/mL | > 10 mg/mL | 
3 | CCCC(=O)OCc1nc(N(C)[C@@H]2C[C@H]3CCC[C@@H](C2)N3S(=O)(=O)CC)nc(Nc2cc(C)[nH]n2)c1F [Compound 3, (2-(((1R,3s,5S)-9-(ethylsulfonyl)-9-azabicyclo[3.3.1]nonan-3-yl)(methyl)amino)-5-fluoro-6-((5-methyl-1H-pyrazol-3-yl)amino)pyrimidin-4-yl)methyl butyrate] | ≤ 0.01 µM | < 5 mg/mL | > 10 mg/mL | > 10 mg/mL | > 10 mg/mL | > 10 mg/mL
4 | CCS(=O)(=O)N1[C@@H]2CCC[C@H]1C[C@H](N(C)c1nc(COC(=O)OC3CCCCC3)c(F)c(Nc3cc(C)[nH]n3)n1)C2 [Compound 6, cyclohexyl ((2-(((1R,3s,5S)-9-(ethylsulfonyl)-9-azabicyclo[3.3.1]nonan-3-yl)(methyl)amino)-5-fluoro-6-((5-methyl-1H-pyrazol-3-yl)amino)pyrimidin-4-yl)methyl) carbonate] | 0.01 to 0.0316 µM | < 5 mg/mL | > 10 mg/mL | 5 to 10 mg/mL (≈ 8.42 to 16.8 mM) | 5 to 10 mg/mL (≈ 8.42 to 16.8 mM) | > 10 mg/mL
5 | CCS(=O)(=O)N1[C@@H]2CCC[C@H]1C[C@H](N(C)c1nc(CO)c(F)c(Nc3cc(C)[nH]n3)n1)C2 [Compound M, (2-(((1R,3s,5S)-9-(ethylsulfonyl)-9-azabicyclo[3.3.1]nonan-3-yl)(methyl)amino)-5-fluoro-6-((5-methyl-1H-pyrazol-3-yl)amino)pyrimidin-4-yl)methanol] | ≤ 0.01 µM | < 5 mg/mL | < 5 mg/mL | < 5 mg/mL | < 5 mg/mL | > 10 mg/mL
6 | CCS(=O)(=O)N1[C@@H]2CCC[C@H]1C[C@H](N(C)c1nc(COC(C)=O)c(F)c(Nc3cc(C)[nH]n3)n1)C2 [Compound 1, (2-(((1R,3s,5S)-9-(ethylsulfonyl)-9-azabicyclo[3.3.1]nonan-3-yl)(methyl)amino)-5-fluoro-6-((5-methyl-1H-pyrazol-3-yl)amino)pyrimidin-4-yl)methyl acetate] | ≤ 0.01 µM | < 5 mg/mL | > 10 mg/mL | 5 to 10 mg/mL | > 10 mg/mL | > 10 mg/mL
7 | CCS(=O)(=O)N1[C@@H]2CCC[C@H]1C[C@H](N(C)c1nc(COC(=O)C3CCOCC3)c(F)c(Nc3cc(C)[nH]n3)n1)C2 [Compound 7, (2-(((1R,3s,5S)-9-(ethylsulfonyl)-9-azabicyclo[3.3.1]nonan-3-yl)(methyl)amino)-5-fluoro-6-((5-methyl-1H-pyrazol-3-yl)amino)pyrimidin-4-yl)methyl tetrahydro-2H-pyran-4-carboxylate] | ≤ 0.01 µM | < 5 mg/mL | > 10 mg/mL | > 10 mg/mL | > 10 mg/mL | 
8 | CCCCC(=O)OCc1nc(N(C)[C@@H]2C[C@H]3CCC[C@@H](C2)N3S(=O)(=O)CC)nc(Nc2cc(C)[nH]n2)c1F [Compound 4, (2-(((1R,3s,5S)-9-(ethylsulfonyl)-9-azabicyclo[3.3.1]nonan-3-yl)(methyl)amino)-5-fluoro-6-((5-methyl-1H-pyrazol-3-yl)amino)pyrimidin-4-yl)methyl pentanoate] | ≤ 0.01 µM | < 5 mg/mL | > 10 mg/mL | > 10 mg/mL | < 5 mg/mL | > 10 mg/mL
9 | CCS(=O)(=O)N1[C@@H]2CCC[C@H]1C[C@H](N(C)c1nc(COC(=O)OC(C)C)c(F)c(Nc3cc(C)[nH]n3)n1)C2 [Compound 8, (2-(((1R,3s,5S)-9-(ethylsulfonyl)-9-azabicyclo[3.3.1]nonan-3-yl)(methyl)amino)-5-fluoro-6-((5-methyl-1H-pyrazol-3-yl)amino)pyrimidin-4-yl)methyl isopropyl carbonate] | ≤ 0.01 µM | < 5 mg/mL | > 10 mg/mL | > 10 mg/mL | < 5 mg/mL | 
10 | CCC(=O)OCc1nc(N(C)[C@@H]2C[C@H]3CCC[C@@H](C2)N3S(=O)(=O)CC)nc(Nc2cc(C)[nH]n2)c1F [Compound 2, (2-(((1R,3s,5S)-9-(ethylsulfonyl)-9-azabicyclo[3.3.1]nonan-3-yl)(methyl)amino)-5-fluoro-6-((5-methyl-1H-pyrazol-3-yl)amino)pyrimidin-4-yl)methyl propionate] | ≤ 0.01 µM | < 5 mg/mL | > 10 mg/mL | > 10 mg/mL | > 10 mg/mL | > 10 mg/mL
